Experimental data reported in patent US11667601B2, “Calcium BOPTA complex” (BRACCO IMAGING S.P.A., priority 2019, dated 2023).

Experiment: Solubility in water of the isolated solid form
Assay type: physicochemical
Details: solid form obtained by the ethanol precipitation process

Substance: (4RS)-[4-carboxy-5,8,11-tris(carboxymethyl)-1-phenyl-2-oxa-5,8,11-triazatridecan-13-oato(5-)] calciate(3-) trisodium [Ca-BOPTA trisodium salt]
- solubility of the solid form: soluble in water
